1 substance from patent publication US12599673B2, “Techniques for enhancing the selectivity and efficacy of antimicrobial and anticancer polymer agents” (International Business Machines Corporation, priority 2018, dated 2026) can be followed below.

The term LD50 denotes the dose at which mortality reaches 50%. Low readings indicate greater toxicity, high ones lower toxicity.

Data set [1] relates to P. aeruginosa. Kind of data set: Minimal inhibitory concentration toward P. aeruginosa. The data set is classed as cell-based, Pseudomonas aeruginosa. As for the experimental part: FIG. 15A presents a Graph 1500 illustrating the antimicrobial selectivity and efficacy of example therapeutic polymers and coacervate complexes against P. aeruginosa in accordance with various embodiments described herein. […] The tested efficacy is based on their respective minimal inhibitory concentrations (MICs) toward P. aeruginosa. […] The commercial standard antibiotic Polymyxin B sulfate (PolyB) and Complex X were also tested for selectivity and efficacy/toxicity for comparison. Complex X is used herein to refer to a coacervate complex formed with Polymer A in combination with PolyB (as opposed to Polymer A and the disclosed therapeutic polyguanidinium based Polymers). FIG. 15B provides a corresponding Table 1501 for Graph 1500. In addition to the MIC and HC50 values reflected in Graph 1500, Table 1501 also identifies the […] (SI) of the respective polymers and corresponding coacervate complexes. Repetitive description of like elements employed in respective embodiments is omitted for sake of brevity.

Data set [2] is described as follows: In vivo toxicity in mice (LD50). On the procedure: FIGS. 21A and 21B provides tables illustrating the in vivo toxicity and antimicrobial efficacy of coacervate complexes in accordance with various embodiments described herein. […] The data presented in both tables 2101 and 2102 reflect testing using a mouse model.
With reference to FIG. 21 and Table 2101 the in vivo toxicity of different antimicrobials was measured as a function of the lethal dose 50 (LD50) values (which is the amount of antimicrobial that kills 50% of the tested population). […] In fact, the LD50 level of Complex E is so high that is cannot be measured. […] This in-vivo toxicity data is further commensurate with the in vitro toxicity data and in vitro hemolysis data discussed above.

For data set [3], the system named is THP-1 cells (a human monocytic cell line). Kind of data set: Biocompatibility/toxicity with THP-1 cells (cell viability). The data set is classed as cell-based. On the procedure:
FIG. 17 presents a Graph 1700 illustrating the biocompatibility/toxicity of various therapeutic polymers and coacervate complexes with mammalian cells in accordance with various embodiments described herein. […] In accordance with the data reflected in Graph 1700, different dosages (e.g., from 2 ppm to 1000 ppm in μg/mL) of the respective polymers and coacervate complexes were incubated with the THP-1 cells for 24 hours at 37° C. The polymers tested include Polymer A, Polymer B, Polymer C, Polymer D, and Polymer E. The coacervates tested include Complex B, Complex C, Complex D, and Complex E. The percent cell viability detected at concentrations less than 63 ppm were substantially the same as those shown for 63 ppm, and thus are not depicted to minimize the complexity of the visualization.

Turning to Polymyxin B sulfate [PolyB], in data set [1], the “MIC toward P. aeruginosa” value is 0.5 µg/mL. Besides, the LD50 in data set [2] is 5.4 mg/kg. The “percent cell viability THP-1” value in data set [3] (1000 ppm, 24 hours at 37° C) is on record as “below 20%”. The “cell viability THP-1” value in data set [3] (about 250 ppm) is recorded as 50%; in data set [3] (about 500 ppm) it was roughly 30%.
